Experimental data as given in publication PMC11145868, “Protein target similarity is positive predictor of in vitro antipathogenic activity: a drug repurposing strategy for Plasmodium falciparum” (Journal of Cheminformatics, 2024).
Counter-ions that a name gives are not always drawn. Like-named read-outs stand apart in the source and are kept apart here.

Experiments:
P. falciparum Dd2-HLH [1] = assay: microbe, parasite or virus in culture; assay type: cell-based, Plasmodium falciparum; settings: read-out: Blood stage 72h EC50
[2] = target: P. berghei-luciferase sporozoites; assay: microbe, parasite or virus in culture; assay type: cell-based, Plasmodium berghei; settings: read-out: Liver stage 48h EC50
P. falciparum Dd2-HLH [3] = assay: microbe, parasite or virus in culture; assay type: cell-based, Plasmodium falciparum
HEK293T cells = assay: Mammalian cell cytotoxicity assay, HEK293T (CellTiter-Glo, 72 h); settings: read-out: HEK CC50
[4] = as above; settings: human, HEK293T cells
[5] = Mammalian cell cytotoxicity assay, HepG2 (CellTiter-Glo, 72 h); settings: human, HepG2 cells
[6] = P. falciparum blood-stage parasites, 72 hours in culture
[7] = liver-stage parasites, 48 hours in culture
[8] = P. falciparum blood-stage parasites, 48 hours in culture, read-out: Blood stage 48h EC50
[9] = Plasmodium falciparum, DD2, 72 h
[10] = Plasmodium berghei, HepG2, liver-stage parasites, 48 hours in culture
[11] = Plasmodium falciparum, DD2, 48 h, read-out: Blood stage 48h EC50

Compound	EC50 (P. falciparum Dd2-HLH [1]; [6])	EC50 [2, 7]	EC50 (P. falciparum Dd2-HLH [3]; [8])	CC50 (HEK293T cells; HEK293T cells)	EC50 (P. falciparum Dd2-HLH [1]; [9])	EC50 [2, 10]	EC50 (P. falciparum Dd2-HLH [3]; [11])	CC50 at 72 h [4]	CC50 at 72 h [5]	further results
COc1cc2nc(-c3ccc(N4CCN(C)CC4)cc3)nc(NCCN3CCOCC3)c2cc1OC [CPG-52364]	381 nM	1100 nM	100 nM	1640 nM						
Cc1ncc(NC(=O)c2ccc(CN3CCN(C)CC3)c(C(F)(F)F)c2)cc1Nc1nccc(-c2cccnc2)n1 [Flumatinib mesylate]	213 nM	> 10000 nM	85 nM	> 9950 nM						
O=C(Nc1ccccc1)N[C@@H]1C(=O)N(CC23CC4CC(CC(C4)C2)C3)c2ccccc2N(c2ccccc2)C1=O [GV 150013]	253 nM	> 10000 nM		> 9950 nM						
CCc1ccc(OCc2ccccc2C(=O)Nc2ccc3nc(C)cc(N)c3c2)cc1 [JTC-801]	635 nM	429 nM	123 nM							CC50 (HEK293T cells; HEK293T cytotoxicity): 1810 nM
CN(C)c1ccc2c(c1)Sc1cc(N(C)C)ccc1N2 [Leuco methylthioninium]				3490 nM						EC50 (P. falciparum Dd2-HLH [1]): 209 nM; EC50 [2]: 3920 nM; EC50 (P. falciparum Dd2-HLH [3]; read-out: Blood stage 48h EC50): 96 nM
CC(=O)O[C@H]1C(=O)[C@@]2(C)[C@H]([C@H](OC(=O)c3ccccc3)[C@]3(O)C[C@H](OC(=O)[C@H](O)[C@@H](NC(=O)c4ccccc4)c4ccccc4)C(C)=C1C3(C)C)[C@]1(OC(C)=O)CO[C@@H]1C[C@@H]2O [Paclitaxel]					186 nM	7530 nM	164 nM	> 9950 nM	7040 nM	
Cc1[nH]c2ccccc2c1CCNCc1ccc(/C=C/C(=O)NO)cc1 [Panobinostat Lactate]	51 nM	131 nM	20 nM	78 nM						
COc1ccc(C[C@H](N)C(=O)N[C@H]2[C@@H](O)[C@H](n3cnc4c(N(C)C)ncnc43)O[C@@H]2CO)cc1 [Puromycin]					125 nM	840 nM	61 nM	1240 nM	498 nM	
CN1CCC(CNc2ccc3ncc(-c4cccc(OC(F)(F)F)c4)n3n2)CC1 [SGI-1776]					623 nM	1790 nM	482 nM	4580 nM	1040 nM	
CN(c1ccc(Cl)cc1)c1cc[n+](Cc2ccc(-c3ccc(C[n+]4ccc(N(C)c5ccc(Cl)cc5)c5ccccc54)cc3)cc2)c2ccccc12 [TCD-717]					714 nM	102 nM	63 nM	1930 nM	4770 nM	
Cc1cc(-c2cc(OC(=O)c3ccccc3)ccc2Cl)cc2nnc(Nc3ccc(OCCN4CCCC4)cc3)nc12 [TG-100801]	205 nM	1410 nM	68 nM							CC50 (HEK293T cells; HEK293T cytotoxicity): > 9950 nM
Cc1ccc(CCCO)c(NCc2ccc3nc(NCCCN4CCOCC4)n(Cc4nc(C)ccc4O)c3c2)c1 [TMC-353121]	650 nM	> 10000 nM	319 nM	> 9950 nM						
CN[C@@H]1C[C@H]2O[C@@](C)([C@@H]1OC)n1c3ccccc3c3c4c(c5c6ccccc6n2c5c31)C(=O)N[C@H]4O [UCN-01]	488 nM	2150 nM	79 nM							CC50 (HEK293T cells; HEK293T cytotoxicity): 74 nM
CC[C@]1(O)C[C@@H]2CN(CCc3c([nH]c4ccccc34)[C@@](C(=O)OC)(c3cc4c(cc3OC)N(C)[C@H]3[C@@](O)(C(N)=O)[C@H](O)[C@]5(CC)C=CCN6CC[C@]43[C@@H]65)C2)C1 [Vindesine]					20 nM	837 nM	14 nM	> 9950 nM	> 9990 nM	
COC1=C(C)C(=O)C2=C(C1=O)[C@@H](COC(N)=O)[C@@]1(OC)[C@H]3N[C@H]3CN21 [mitomycin A, reference compound]						1360 nM		362 nM	32 nM	EC50 (P. falciparum Dd2-HLH [1]; Plasmodium falciparum, DD2, P. falciparum blood-stage parasites, 72 hours in culture): 18 nM; EC50 (P. falciparum Dd2-HLH [3]; Plasmodium falciparum, DD2, P. falciparum blood-stage parasites, 48 hours in culture, read-out: Blood stage 48h EC50): 38 nM; EC50 (P. falciparum Dd2-HLH [3]; Plasmodium falciparum, DD2, stage and incubation time not given, read-out: EC50 (antiplasmodial, quoted in discussion from Supplementary Table 1)): 37.7 nM
CN(C)Cc1ccc(S(=O)(=O)n2ccc(/C=C/C(=O)NO)c2)cc1 [resminostat, reference compound]					697 nM	7060 nM		3550 nM	1200 nM	EC50 (P. falciparum Dd2-HLH [3]; Plasmodium falciparum, DD2, read-out: EC50 (antiplasmodial, quoted in discussion from Supplementary Table 1)): 431 nM
